Reference: US20260240843A1, “PHARMACEUTICAL COMPOSITION AND USE THEREOF” (priority 2023, published 2026)
Structures can show the parent of a compound that is named as a salt. Where two headings read alike, the source gives them in different places.

How the values were obtained:
[1] = test system: human ovarian cancer OVCAR3 cell xenograft tumor; conditions: doxorubicin hydrochloride 3 mg/kg i.v. qw x 4 w; for tumor growth inhibition (in words): (I-1) 100 mg/kg p.o. qd x 28 d; for RTV on day 29 after administration (mean value ± standard error) / T/C (%) on day 29 after administration: day 29, (I-1) 100 mg/kg p.o. qd x 28 d
Excerpt: A total of 71 immunodeficient mice were subcutaneously injected with 10×10^6 OVCAR3 cells to establish a xenograft tumor model. Tumor-bearing mice with uniform tumors were randomly grouped into different treatment groups based on tumor volume, with 7 mice in each group.
Tumor cells: OVCAR3; 10×10^6 cells+Matrigel gel/mouse. A total of 71 mice were inoculated. 28 tumor-bearing mice with relatively uniform tumors were selected and randomly divided into 4 experimental groups, with 7 mice per group.
(§1) Under sterile conditions, a xenograft tumor model was established by subcutaneous injection of tumor cells into the right dorsal side of immunodeficient mice. When the tumor reached an appropriate size (100 mm^3 to 200 mm^3), the animals were randomly grouped by randomized block method based on the tumor volume of the animals, the tumor volume difference of each group should be less than 20% of the mean value, with 6 to 7 animals in each group, and administration was started on the day of grouping (i.e., d1). The body weight and tumor size of the animals were measured twice a week during the experiment. The clinical symptoms were observed and recorded daily. At the end of administration or at the end of the experiment.
(§2) The tumor volume (TV) was calculated as follows: TV=a×b^2/2, where a and b represent the measured length and width of the tumor, respectively.
(§3) The relative tumor volume (RTV) was calculated as follows: RTV=Vt/V1, where V1 represents the tumor volume at the time of grouping and administration (day 1), and Vt represents the tumor volume at the time of measurement.
(§4) The synergy score was calculated using the following formula (Clarke R, 1997):
(§5) [formula] • where A represents response to drug A; B represents response to drug B; C represents response to vehicle control; AB represents response to combination treatment with A and B.
(§6) The antitumor growth curves of the test substances were plotted by taking the X-axis as the treatment time (day) and the corresponding tumor volume (mean value) as the Y-axis. […] All data were statistically analyzed using SPSS (Statistical Product and Service Solutions) software (version 18.0, IBM, Armonk, NY, U.S.). Graphing was performed using Prism version 6 (GraphPad Software Inc., San Diego, CA).
(§7) For combination treatment, a synergy score of <1 indicated antagonistic effect, a synergy score of =1 indicated additive effect, and a synergy score of >1 indicated synergistic effect.

[2] = test system: human ovarian cancer OVCAR3 cell xenograft tumor; conditions: PLD 3 mg/kg i.v. qw x 3 w; for tumor growth inhibition (in words): (I-1) 100 mg/kg p.o. qd x 21 d
Excerpt: A total of 56 immunodeficient mice were subcutaneously injected with 10×10^6 OVCAR3 cells to establish a xenograft tumor model. Tumor-bearing mice with uniform tumors were randomly grouped into different treatment groups based on tumor volume, with 6 mice in each group.
Tumor cells: OVCAR3; 10×10^6 cells+Matrigel gel/mouse. A total of 56 mice were inoculated. 24 tumor-bearing mice with relatively uniform tumors were selected and randomly divided into 4 experimental groups, with 6 mice in each group.
as §1, §2, §3, §4, §5, §6, §7

[3] = test system: mouse ovarian cancer ID8 cells; test: Murine ovarian cancer ID8 cell intraperitoneal model, combination with PLD; assay type: in vivo, mouse (C57BL/6)
Procedure: A total of 90 C57BL/6 mice were intraperitoneally injected with 15×10^6 ID8 cells to establish an ovarian cancer intraperitoneal model.
The body weight and tumor volume of the animals were measured twice or thrice a week during the experiment. The clinical symptoms were observed and recorded daily. After the administration was completed, the abdominal girth, body weight, and survival time of the mice were continuously observed until all the animals were subjected to euthanasia.
The tumor volume (TV) was measured using an IVIS imaging system, and the total luminescence value (Total flux) of each mouse was calculated under the same measurement area.
The animals were euthanized according to animal welfare principles when the body weight loss of the animals exceeded 20%, disease progression or moribund state was observed, the tumor burden exceeded 10% of the animal's body weight, the abdominal girth exceeded 100 mm, or the body weight exceeded 30 g.
Graphing was performed using Prism version 9 (GraphPad Software Inc., San Diego, CA), and the survival time and ascites production time were analyzed using the log-rank test.

[4] = day 22, (I-1) 100 mg/kg p.o. qd x 21 d

Compound | tumor growth inhibition (in words) [1] | RTV on day 29 after administration (mean value ± standard error) [1] | T/C (%) on day 29 after administration [1] | tumor growth inhibition (in words) [2] | RTV on day 22 after administration (mean value ± standard error) [2, 4] | T/C (%) on day 22 after administration [2, 4] | survival time of the mice (in words) ([3]; compared with the solvent control group (combination also vs. monotherapy groups)) | T/C on day 22 ([3]; day 22, (I-1) 100 mg/kg p.o. qd x 21 d, PLD 3 mg/kg i.v. qw x 3 w) | T/C (%) on day 36 after administration ([3]; day 36, (I-1) 100 mg/kg p.o. qd x 21 d, PLD 3 mg/kg i.v. qw x 3 w) | RTV on day 36 after administration (mean value ± standard error) ([3]; day 36, in vivo imaging (Total flux), (I-1) 100 mg/kg p.o. qd x 21 d, PLD 3 mg/kg i.v. qw x 3 w)
Cc1cc(Nc2ncc(Cl)c(Nc3ccccc3S(=O)(=O)C(C)C)n2)c(OC(C)C)cc1C1=CCN(C2CCOCC2)CC1 [Compound represented by formula (I-1)] | moderate tumor growth inhibition | 7.95 ± 1.31 | 63.15% | moderate tumor growth inhibition | 7.42 ± 1.06 | 72.77% | prolonged | 37.49% | 97.13% | 4.72 ± 1.35
COc1cccc2c1C(=O)c1c(O)c3c(c(O)c1C2=O)C[C@@](O)(C(=O)CO)C[C@@H]3O[C@H]1C[C@H](N)[C@H](O)[C@H](C)O1 [Doxorubicin hydrochloride, reference compound] | moderate tumor growth inhibition | 8.88 ± 1.19 | 70.50% | moderate tumor growth inhibition | – | – | – | – | – | –
